For assay [1], the system named is ACAT. The experiment in a line: ACAT enzyme assay; selectivity for DGAT over ACAT. The class given is biochemical. The following applies: DGAT vs ACAT enzyme assays. The protocol:
3) The ability of compounds to inhibit ACAT can be measured using a modification of the enzyme assay described in Billheimer (1985) Methods in Enzymology, 111, 286-293. The test assesses the ability of a test compound to inhibit the esterification of cholesterol by measuring the amount of radiolabeled cholesteryl oleate formed from radiolabeled oleoyl CoA. Compound was incubated with 10 μg membrane protein and 267 μM cholesterol. After a 5 minute pre-incubation at 37° C. the reaction was started by adding ^14C oleoyl coenzyme A (50 μM final concentration) and incubated at 37° C. for a further 30 minutes. The reaction was stopped by adding 2-propanol:heptane (12:1). Radioactive cholesteryl ester product was separated into the organic phase by adding heptane and 1M carbonate buffer pH 9.5. ACAT activity was quantified by counting aliquots of the upper heptane layer by liquid scintillography.
The selectivity of a compound to inhibit DGAT over inhibition of ACAT may be defined as the ratio of IC50 values generated in the DGAT and ACAT enzyme assays for a particular compound.

Assay [2] concerns the target T1, human DGAT1 (Homo sapiens, UniProt O75907).
T1 construct: made in house; host or cells: Sf9 insect cells, recombinant baculovirus; membrane fraction
T1 sequence (O75907 1-488): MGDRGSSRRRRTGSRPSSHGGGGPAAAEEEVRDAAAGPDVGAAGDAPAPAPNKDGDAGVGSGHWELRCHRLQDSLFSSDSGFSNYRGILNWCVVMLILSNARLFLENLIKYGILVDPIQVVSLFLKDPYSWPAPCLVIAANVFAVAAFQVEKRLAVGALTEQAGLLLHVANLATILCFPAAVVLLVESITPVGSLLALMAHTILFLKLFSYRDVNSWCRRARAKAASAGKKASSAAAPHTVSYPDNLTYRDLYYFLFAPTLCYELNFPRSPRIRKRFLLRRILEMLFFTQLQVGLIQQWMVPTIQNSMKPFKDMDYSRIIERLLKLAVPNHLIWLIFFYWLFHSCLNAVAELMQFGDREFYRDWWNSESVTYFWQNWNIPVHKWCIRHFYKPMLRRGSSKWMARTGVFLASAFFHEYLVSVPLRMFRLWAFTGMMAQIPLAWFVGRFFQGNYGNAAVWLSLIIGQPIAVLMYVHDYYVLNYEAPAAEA
As to the kind of experiment: Human Enzyme Assay (DGAT1 activity, 14C oleoyl coenzyme A, insect cell membranes). The following applies: human DGAT1 expressed in sf9 insect cell membranes. The class given is biochemical. The protocol:
The in vitro assay to identify DGAT1 inhibitors uses human DGAT1 expressed in insect cell membranes as the enzyme source (Proc. Natl. Acad. Sci. 1998, 95, 13018-13023). Briefly, sf9 cells were infected with recombinant baculovirus containing human DGAT1 coding sequences and harvested after 48 h. Cells were lysed by sonication and membranes isolated by centrifuging at 28000 rpm for 1 h at 4° C. on a 41% sucrose gradient. The membrane fraction at the interphase was collected, washed, and stored in liquid nitrogen.
DGAT1 activity was assayed by a modification of the method described by Coleman (Methods in Enzymology 1992, 209, 98-102). Compound at 1-10 μM was incubated with 0.4 μg membrane protein, 5 mM MgCl2, and 100 μM 1,2 dioleoyl-sn-glycerol in a total assay volume of 200 μl in plastic tubes. The reaction was started by adding ^14C oleoyl coenzyme A (30 μM final concentration) and incubated at room temperature for 30 minutes. The reaction was stopped by adding 1.5 mL 2-propanol:heptane:water (80:20:2). Radioactive triolein product was separated into the organic phase by adding 1 mL heptane and 0.5 mL 0.1 M carbonate buffer pH 9.5. DGAT1 activity was quantified by counting aliquots of the upper heptane layer by liquid scintillography.

The structures appear in SMILES notation.

Consider `O=C(Nc1ccc(O[C@H]2CC[C@H](C(=O)O)CC2)cc1)c1nnc(Nc2ccc(F)cc2)o1` [Example 13, trans-4-{4-[({5-[(4-fluorophenyl)amino]-1,3,4-oxadiazol-2-yl}carbonyl)amino]phenoxy}cyclohexanecarboxylic acid], for which the “selectivity to inhibit DGAT over inhibition of ACAT (ratio of IC50 values in the DGAT and ACAT enzyme assays)” value in assay [1] is 310 fold. For the same compound, the IC50 in assay [2] came out at 17 nM.

As usually defined, the IC50 is the concentration that gives 50% inhibition. High values mean weaker potency, low ones greater potency.

Values taken from patent publication US8084478B2, “Substituted 5- phenylamino- 1, 3, 4-oxadiazol-2-ylcarbonylamino-4-phenoxy-cyclohexane carboxylic acid as inhibitors of acetyl coenzyme A diacylglycerol acyltransferase” (AsstraZeneca AB, priority 2006, dated 2011).
